What was measured:
[1] = Solubility of delphinidin chloride in aqueous cyclodextrin solutions (Example 1); format: physicochemical; conditions: pure water, cyclodextrin concentration 0; stirred 30° C. 20 h in the dark, filtered 0.22 μm
[2] = Stability trials in aqueous solution, 0.9% NaCl, 37° C. (Example 5); format: physicochemical; conditions: 0.9% NaCl solution, dark
Description: To determine the delphinidin chloride content in the delphinidin-containing solutions, a reversed-phase HPLC method was used similar to the one already described above. The following reagents were used in this case: […] The solutions were prepared at room temperature and subsequently stored in the dark at 37° C. in closed vials. […] The table below gives the content determined as a percentage of the starting concentration stated above.

[3] = test system: human melanoma cell line A-375; assay: Induction of apoptosis, sub-G1 peak method (Examples 6 and 9); format: cell-based; conditions: A-375, 24 hours; for Induction of apoptosis (sub-G1 peak): 10-3000 μg/ml delphinidin-SBE-β-CD or 15-120 μM delphinidin Cl, low and higher cell confluence (FIGS. 2a, 2b)
[4] = test system: human melanoma cell line A-375; assay: Cell viability test, WST-1 assay (Examples 7 and 10); format: cell-based; conditions: A-375, 24 hours; for Cell viability (WST-1 assay): 10-3000 μg/ml delphinidin-SBE-β-CD or 15-120 μM delphinidin Cl, low and higher cell confluence (FIGS. 3a, 3b)
A-375 cells [5] = assay: Real-time cell analysis of cell number and proliferation, xCELLigence system (Examples 8 and 11); format: cell-based, human
[6] = test system: human dermal microvascular endothelial cells; assay: Cell vitality, ATP luminescence assay, endothelial cells (Example 12); format: cell-based; conditions: 0.1-100 μM (0.1; 3.2; 100 μM); Day 1-Day 4 (FIG. 18)
Description: The human dermal microvascular endothelial cells were obtained by the standard method known to those skilled in the art of Hewett and Murray (1993) [Hewett P. W. and Murray J. C. (1993) Immunomagnetic purification of human microvessel endothelial cells using Dynabeads coated monoclonal antibodies to PECAM-1. Eur J Cell Biol 62: 451-454; Hewett P. W. & Murray J. C. (1993) Human microvessel endothelial cells: Isolation, culture and characterization. In Vitro Cell Biol: 823-830].

A-375 cells [7] = assay: Microscopic analysis of cell morphology after 24 hours of treatment; conditions: A-375, 24 hours of treatment, high concentrations (FIG. 4)

Compound: Oc1cc(O)c2cc(O)c(-c3cc(O)c(O)c(O)c3)[o+]c2c1.[Cl-] [delphinidin Cl, delphinidin chloride]
- Delphinidin chloride, solubility achievable [1]: 70 µg/mL
- Delphinidin content as a percentage of the starting concentration ([2]; 0 h, start 1.584 mg/ml (complex) or 0.0216 mg/ml (delphinidin)): 100%
- Delphinidin content as a percentage of the starting concentration ([2]; 1 h): 8.3%
- Delphinidin content as a percentage of the starting concentration ([2]; 2 h): 6.5%
- Delphinidin content as a percentage of the starting concentration ([2]; 3 h): 5.6%
- Delphinidin content as a percentage of the starting concentration ([2]; 4 h): 5.1%
- Induction of apoptosis (sub-G1 peak) [3]: significant dose-dependent induction of apoptosis
- Cell viability (WST-1 assay) [4]: loss of vital cells with increasing dose
- Concentration at which similarly strong antiproliferative effects are seen (A-375 cells [5]; A-375, high and low cell confluence (FIGS. 7 and 8)): 60 to 120 µM
- Cytotoxic effects on endothelial cells (vitality) [6]: no significant cytotoxic effects
- Morphology of the cells under microscopic analysis (A-375 cells [7]): become globular and/or detached

Compound: sulfobutyl ether β-cyclodextrin [SBE-β-CD]
- Induction of apoptosis (sub-G1 peak) [3]: no effect
- Induction of apoptosis (sub-G1 peak), Example 9 ([3]; complex partner as control (FIG. 11b)): at control level
- Cell viability (WST-1 assay) [4]: no effect
- Cell vitality, Example 10 ([4]; complex partner as control (FIG. 12b)): at control level
- Intensification of TRAIL sensitivity (real-time cell monitoring) (A-375 cells [5]; A-375, high cell confluence, SBE-β-CD 30 or 1000 μg/ml with TRAIL 0.02 μg/ml (FIGS. 16 and 17)): No intensification of TRAIL sensitivity

From patent US9511047B2, “Delphinidin for combating melanoma cells” (priority 2012, dated 2016)
